{"source": "patent US11160882B2", "about": "“Indirect chromoendoscopy with an oral indigo carmine base preparation” (priority 2014, dated 2021)", "origin": "cited, not measured here", "key": {"colon [1]": {"test_system": "colon", "details": "100 mg oral capsule before the colonic prep"}, "colon [2]": {"test_system": "colon", "details": "100 mg oral powder before the colonic prep"}, "[3]": {"details": "rat, oral (Lethco et al., 1966)"}, "[4]": {"details": "humans (Oravisto K., 1957)"}}}
{"smiles": "O=C1/C(=C2\\Nc3ccc(S(=O)(=O)[O-])cc3C2=O)Nc2ccc(S(=O)(=O)[O-])cc21.[Na+].[Na+]", "note": "[indigo carmine]", "values": [{"measurement": "toxicity from oral administration", "setting": "oral administration", "result": "no reports of toxicity"}, {"measurement": "daily intake certified by the FDA", "setting": "use as a food colorant", "result": "up to 2 mg/kg"}, {"measurement": "cases in which staining of the entire colon was ineffective", "setting": "colon [1]", "result": "over 90%"}, {"measurement": "side effects", "setting": "colon [2]", "result": "No side effects were observed"}, {"measurement": "cases with good effect (staining), left colon", "setting": "colon [2]; left colon", "result": 50, "unit": "%"}, {"measurement": "cases with good effect (staining), right colon", "setting": "colon [2]; right colon", "result": 80, "unit": "%"}, {"measurement": "dye taken orally that was absorbed", "setting": "[3]", "result": 3, "unit": "%"}, {"measurement": "clearance of absorbed food colorant from circulation", "setting": "[4]", "result": "cleared very rapidly"}]}
